In US20070118211A1, “Method for preparing drug eluting medical devices and devices obtained therefrom” (priority 2003, published 2007):

Test: elution of the drug from coated stents in physiological solution (UV absorbance)
Assay type: physicochemical
Details: stent with allylamine polymer deposited by cold plasma compared with stent with polymer according to the state of the art (polybutadiene layers); 1 cc physiological solution; absorbance at 261 nm; FIG. 1
Method: Next, the stents were immersed in test tubes containing 1 cc of physiological solution and the rate of elution of the drug was measured by acquiring the visible UV spectrum using a Unicam 8700 spectrophotometer and reading off the absorbance at 261 nm. The correlation between absorbance and concentration was established by measuring the absorbance of solutions of known concentration (calibration curve). The drug elution measurements were carried out at fixed time intervals and the physiological solution was changed at each measurement.
10 mg of dexamethasone were dissolved in 1 cc of ethanol and applied as described previously. The elution curves were again measured as described in example 1 and the absorbance at 264.4 nm was read off.

## CS(=O)(=O)O.Cc1ccc(NC(=O)c2ccc(CN3CCN(C)CC3)cc2)cc1Nc1nccc(-c2cccnc2)n1 [hydrophilic drug, 4-[(4-methyl-1-piperazinyl)methyl]-N-[4-methyl-3-[[4-(3-pyridinyl)-2-pyrimidinyl]amino]-phenyl]benzamide methanesulphonate]
  elution of the hydrophilic drug: significantly delays the elution
